From US8951747B2, “Method for modulating activity of T lymphocytes” (Ludwig Institute for Cancer Research, priority 2007, dated 2015)

Experiments:
Type in all cases: cell-based, human
[1] = tested on: CD8+ TILs from gastric carcinoma ascites; test: TCR CD8 FRET on CD8+ TILs; conditions: 1 mM LacNAc, 37° C., 5 hours of treatment; compared with tetramer^high CD8TL A10
Method: (§1) To elaborate, samples of 2×10^5 cells were washed in Hank's medium that had been supplemented with 1% human serum, and were then resuspended, in 50 μl of medium, which contained either an anti-TCRβ-PE antibody (the “donor” antibody), or an anti-CD8α-Alexa647 antibody (the “acceptor” antibody), or both. The former was diluted at 1/20 and the latter, at 1/300.
(§2) Samples were incubated for 30 minutes at 4° C., washed, and fixed with paraformaldehyde (2% w/v in PBS). Analysis was carried out on a FACS system, and transfer of fluorescence was calculated as FRET units, in accordance with Doucey, et al., J. Biol. Chem., 278:3257-3264 (2003), incorporated by reference. A FRET unit is defined as: [E3both−E3none]−[(E3A647−E3none)×(E2both/E2A647)]−[(E3PE−3none)×(E1both/E1PE)]
These experiments tested the impact of N-acetyllactosamine (LacNAc) on colocalization. Gastric carcinoma ascites were screened for CD8^+ TILs, after they had been incubated for various time periods at 37° C., with 1 mM of LacNAc, and washed. As a control, the line CD8TL A10 was used, two weeks after its last antigenic stimulation.

[2] = tested on: TILs from ovarian cancer ascites; test: IFN-γ response of anergic TILs to stimulation; conditions: overnight incubation with 1 mM LacNAc
Method: It was confirmed by the fact that, notwithstanding overnight stimulation with a mixed population of tumor cells, B cells, and macrophages collected from the same ascites, or with allogenic EBV-β cells. IFNγ was not produced.
When these anergic TILs were incubated overnight with 1 mM LacNAc, their IFN-γ response increased more than 10 fold.

CD8TL clone A10 [3] = test: HLA-peptide tetramer staining of tetramer^low CD8TLs; conditions: for tetramer staining (ability to bind tetramers): tetramer^low cells, day 4 after stimulation, incubated 2 hours, o-phenantholin 30 μM, lactose 100 mM, LacNAc 1 mM, sucrose 100 nM, vs untreated cells
Method: Fourteen days after the stimulation, the CD8TLs were then stained with complexes of HLA-A0101 folded with SEQ ID NO: 1, prepared as described by Coulie, et al., Proc. Natl. Acad. Sci. USA, 98:10290-10295 (2001), incorporated by reference. The complexes were biotinylated and then labeled with phycoerythrin (“PE”), using known methods. Staining was accomplished by incubating CD8TLs, for 10 minutes, at room temperature, with 5 nM of tetramer, and then washing.
(§3) To test this, cells of CD8TL clone A10 were collected, on days 0 and 4, after stimulation with HLA-A1^+, MAGE-3^+ tumor cells. Mean fluorescence indices were determined for both the high and low staining populations, on days 0 and 4. […] staining was carried out, as described supra, with cells that were either incubated with no test substance, or which had been incubated for 2 hours, on day 4, with one of o-phenantholin (30 μM), a known Zn chelator, lactose, (100 mM), LacNAc (1 mM), or sucrose (100 nM). The rationale behind the incubation with lactose, LacNAc, and sucrose is explained in Example 11. A final sample was incubated with swainsonin (0.5 μM) on day 0, before the cells were stimulated.
(§4) The cells were then washed, and analyzed for all of tetramer staining, proximity of the molecules via FRET, and IFN-γ production following antigenic stimulation.

CD8TL clone A10 [4] = test: IFN-γ production following antigenic stimulation; conditions: for ability to release IFN-γ upon antigenic stimulation: tetramer^low cells, day 4 after stimulation, incubated 2 hours, o-phenantholin 30 μM, lactose 100 mM, LacNAc 1 mM, sucrose 100 nM, vs untreated cells
Method: In addition to the experiments set forth, supra the effector capability of the T lymphocytes was tested, at various points during the period in which they were stimulated. Stimulation conditions are set forth in Example 1, supra. The effector activity was determined by contacting samples of 5000 CD8TLs with 2×10^5 HLA-A1 EBV-B cells which had been incubated for one hour with 1 μM of the peptide of SEQ ID NO: 1 at 37° C., and co-culturing the mixed sample, overnight. The amounts of IFN-γ and IL-2 resulting from the activation of the T cells were measured in the supernatants of the co-cultured cells via ELISAs.
as §3, §4

[5] = tested on: kidney infiltrating T cells isolated from the kidney allograft; test: IFN-γ production by functional kidney infiltrating T cells; conditions: LacNAc treatment; stimulation with allogeneic EBV-B cells or anti-CD3/CD28 beads
Source text: A standard depletion strategy was used to isolate CD8^+ T cells from a breast carcinoma metastasis, ovarian carcinoma ascites, blood, and a kidney allograft that had been resected during a chronic rejection process.
As was noted supra, there was clear TCR CD8 FRET on kidney infiltrating T cells isolated from the kidney allograft. These T cells released IFN-γ upon stimulation with allogeneic EBV-B cells, or beads coated with anti-CD3/CD28 antibodies.
Different treatments were not, however, unspecific.

tetramer^low CD8TLs = test: IFN-γ release by tetramer^low CD8TLs treated with galectin-3 binders or neuraminidase; conditions: CD8TLs collected 3-4 days after stimulation
Method: To test this, tetramer^low CD8TLs, collected 3-4 days after stimulation, as described supra, were treated with LacNAc, a known competitive binder of galectin-3. Release of IFN-γ was restored.
These experiments were repeated testing two other galectin-3 binders, “tri-LacNAc,” and an antibody against the N-terminus of galectin-3.
The experiments described herein, using neuraminidase, were carried out on human CD8TLs, and the results parallel those observed by Kao, et al., Immunol., 17:1607-1617 (2005), on murine cells. It is hypothesized that a sialic acid residue may be present, near the LacNAc motif of galectin-binding proteins, and act to increase galectin-3 affinity.

CD8TL clone A10 [6] = test: FRET analysis of TCR-CD8 proximity on tetramer^low CD8TLs; conditions: for FRET between TCR and CD8 (TCR-CD8 proximity): tetramer^low cells, day 4 after stimulation, incubated 2 hours, o-phenantholin 30 μM, lactose 100 mM, LacNAc 1 mM, sucrose 100 nM, vs untreated cells
Method: as §1, §2
E1 is the fluorescence detected at 580 nm, following excitation at 488 nm. E2 is fluorescence detected at 670 nm, following excitation at 630 nm, and E3 is fluorescence detected at 670 nm following excitation at 488 nm.
After the molecules are excited at the donor level, transfer of energy from donor to acceptor happens only if the distance between two molecules is less than 10 nm, with energy transfer being measured by emission at the acceptor wavelength.
as §3, §4

[7] = swainsonin 0.5 μM added on day 0 before restimulation, read at day 4

Compound	TCR CD8 FRET on TILs [1]	increase of IFN-γ response to antigen stimulation [2]	tetramer staining (ability to bind tetramers) (CD8TL clone A10 [3])	ability to release IFN-γ upon antigenic stimulation (CD8TL clone A10 [4])	IFN-γ production of kidney infiltrating T cells [5]	release of IFN-γ by tetramer^low CD8TLs (tetramer^low CD8TLs)	FRET between TCR and CD8 (TCR-CD8 proximity) (CD8TL clone A10 [6])	tetramer staining (CD8TL clone A10 [3]; [7])	ability to release IFN-γ when restimulated (CD8TL clone A10 [4]; swainsonin 0.5 μM added on day 0 before restimulation)	FRET efficiency (TCR-CD8) (CD8TL clone A10 [6]; [7])
CC(=O)N[C@H]1C(O)O[C@H](CO)[C@@H](O[C@@H]2O[C@H](CO)[C@H](O)[C@H](O)[C@H]2O)[C@@H]1O (stereo partly shown) [LacNAc, N-acetyl lactosamine]	recovered the same level of TCR CD8 FRET	more than 10 fold	higher degrees of tetramer staining	higher ability to release IFN-γ	did not result in increased IFN-γ production	restored	higher FRET efficiencies			
OC[C@H]1O[C@@](CO)(O[C@H]2O[C@H](CO)[C@@H](O)[C@H](O)[C@H]2O)[C@@H](O)[C@@H]1O [Sucrose, sucrose]			no effect	no effect			no effect			
O[C@H]1[C@H]2[C@H](O)CCCN2C[C@H]1O [Swainsonin, swainsonin]								higher tetramer staining	higher ability to release IFN-γ	higher FRET efficiency
c1cnc2c(c1)ccc1cccnc12 [o-phenantholin]			regained	regained			regained FRET exchanges between the 2 molecules			
OC[C@H]1O[C@@H](O[C@H]2[C@H](O)[C@@H](O)C(O)O[C@@H]2CO)[C@H](O)[C@@H](O)[C@H]1O (stereo partly shown) [lactose]			higher degrees of tetramer staining	higher ability to release IFN-γ			higher FRET efficiencies			
